Laboratory results reported in ChEMBL document CHEMBL5376014, “Role of heterocycles in inhibition of VEGFR-2 - a recent update (2019-2022)” (RSC Med Chem, 2024).
Values belong to the molecule of their own block, whether it stands above or below them.

How the values were obtained:
[1] = target: T1, Vascular endothelial growth factor receptor 2 (Homo sapiens, UniProt P35968); test: Inhibition of VEGFR-2 (978 to 1408 residues) (unknown origin) using pEY (4:1) as substrate for 20 min in the presence of ATP by ELISA method
T1 sequence (P35968 whole entry, the tested form may be a part): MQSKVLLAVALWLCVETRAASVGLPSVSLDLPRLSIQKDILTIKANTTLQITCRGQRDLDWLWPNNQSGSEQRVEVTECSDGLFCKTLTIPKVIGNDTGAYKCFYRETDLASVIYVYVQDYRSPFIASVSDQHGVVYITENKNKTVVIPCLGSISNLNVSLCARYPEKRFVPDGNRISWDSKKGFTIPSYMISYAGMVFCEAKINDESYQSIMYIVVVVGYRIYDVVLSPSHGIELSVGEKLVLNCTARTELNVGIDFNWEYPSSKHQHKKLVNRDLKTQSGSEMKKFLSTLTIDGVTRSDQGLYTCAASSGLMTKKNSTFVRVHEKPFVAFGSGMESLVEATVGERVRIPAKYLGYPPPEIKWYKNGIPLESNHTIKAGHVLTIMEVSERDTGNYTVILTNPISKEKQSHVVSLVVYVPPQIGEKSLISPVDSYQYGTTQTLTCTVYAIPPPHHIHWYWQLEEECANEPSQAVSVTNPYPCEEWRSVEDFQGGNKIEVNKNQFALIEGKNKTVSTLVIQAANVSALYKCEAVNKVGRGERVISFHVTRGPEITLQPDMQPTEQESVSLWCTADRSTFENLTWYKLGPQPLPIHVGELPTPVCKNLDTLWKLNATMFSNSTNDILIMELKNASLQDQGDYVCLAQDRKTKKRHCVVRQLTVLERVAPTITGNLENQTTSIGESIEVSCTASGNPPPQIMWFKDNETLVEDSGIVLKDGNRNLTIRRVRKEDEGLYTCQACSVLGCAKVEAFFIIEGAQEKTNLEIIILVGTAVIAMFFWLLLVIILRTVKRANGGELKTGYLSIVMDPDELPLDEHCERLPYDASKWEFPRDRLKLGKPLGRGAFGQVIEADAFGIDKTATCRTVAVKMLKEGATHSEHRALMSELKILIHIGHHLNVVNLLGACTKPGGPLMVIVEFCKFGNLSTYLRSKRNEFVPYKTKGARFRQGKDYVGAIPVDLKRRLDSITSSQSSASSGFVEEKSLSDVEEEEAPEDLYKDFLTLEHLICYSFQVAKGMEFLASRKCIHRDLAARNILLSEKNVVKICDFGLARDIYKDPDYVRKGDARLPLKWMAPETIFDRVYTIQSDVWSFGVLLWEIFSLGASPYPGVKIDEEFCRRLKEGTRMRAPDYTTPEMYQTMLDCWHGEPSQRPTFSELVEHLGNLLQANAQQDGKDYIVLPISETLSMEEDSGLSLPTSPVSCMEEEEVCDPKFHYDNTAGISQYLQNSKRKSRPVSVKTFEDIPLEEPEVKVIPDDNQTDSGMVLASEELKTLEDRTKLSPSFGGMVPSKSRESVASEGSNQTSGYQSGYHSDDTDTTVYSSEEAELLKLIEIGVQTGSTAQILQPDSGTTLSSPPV

[2] = target: T1, Vascular endothelial growth factor receptor 2; test: Inhibition of human recombinant VEGFR-2 kinase activity using poly(Glu-Tyr) at 4:1 ratio as substrate incubated for 60 mins by ELISA
[3] = target: T1, Vascular endothelial growth factor receptor 2; test: Inhibition of human recombinant VEGFR-2 expressed in Sf21 insect cells incubated for 60 mins by ELISA
MDA-MB-231 [4] = test: Antiproliferative activity against human MDA-MB-231 cells assessed as cell growth inhibition measured after 48 hrs by MTT assay; format: functional, cell-based; conditions: MDA-MB-231, 48 h
[5] = target: T1, Vascular endothelial growth factor receptor 2; test: Inhibition of human recombinant VEGFR-2 kinase activity using poly(Glu-Tyr) at 4:1 ratio as substrate incubated for 60 mins by ELISA method
[6] = target: T1, Vascular endothelial growth factor receptor 2; test: Inhibition of human VEGFR-2
[7] = target: T1, Vascular endothelial growth factor receptor 2; test: Inhibition of human recombinant VEGFR-2 in the presence of ATP
[8] = target: T1, Vascular endothelial growth factor receptor 2; test: Inhibition of VEGFR-2 (unknown origin) kinase activity using poly(Glu-Tyr) at 4:1 ratio as substrate in presence of ATP incubated for 1 hr by ELISA
[9] = target: T1, Vascular endothelial growth factor receptor 2; test: Inhibition of recombinant VEGFR-2 (unknown origin)
[10] = target: T1, Vascular endothelial growth factor receptor 2; test: Inhibition of VEGFR-2 (unknown origin) incubated for 45 mins by ELISA
[11] = Inhibition of tyrosine kinase in human PANC-1 cells; format: cell-based
[12] = target: T1, Vascular endothelial growth factor receptor 2; test: Inhibition of VEGFR-2 (unknown origin) incubated for […] by ELISA method
HepG2 [13] = test: Antiproliferative activity against human HepG2 cells assessed as reduction in cell viability by MTT assay; format: functional, cell-based
PC-3 = test: Antiproliferative activity against human PC-3 cells assessed as inhibition of cell growth incubated for 48 hrs by MTT assay; format: functional, cell-based; conditions: PC-3, 48 h
MCF7 [14] = test: Antiproliferative activity against human MCF7 cells assessed as reduction in cell viability incubated for 24 hrs by MTT assay; format: functional, cell-based; conditions: MCF7, 24 h
[15] = target: T1, Vascular endothelial growth factor receptor 2; test: Inhibition of VEGFR-2 (unknown origin) kinase activity using poly(Glu-Tyr) at 4:1 ratio as substrate in presence of ATP incubated for 5 mins by ELISA method
[16] = target: T1, Vascular endothelial growth factor receptor 2; test: Inhibition of VEGFR-2 (unknown origin)
HepG2 [17] = test: Cytotoxicity against human HepG2 cells assessed as cell growth inhibition; format: functional, cell-based
MCF7 [18] = test: Cytotoxicity against human MCF7 cells assessed as cell growth inhibition; format: functional, cell-based
[19] = target: T1, Vascular endothelial growth factor receptor 2; test: Inhibition of human recombinant VEGFR-2 by ELISA method
HepG2 [20] = test: Anticancer activity against human HepG2 cells assessed as inhibition of cell growth incubated for 24 hrs by MTT assay; format: functional, cell-based; conditions: HepG2, 24 h
MCF7 [21] = test: Anticancer activity against human MCF7 cells assessed as inhibition of cell growth incubated for 24 hrs by MTT assay; format: functional, cell-based; conditions: MCF7, 24 h
[22] = target: T1, Vascular endothelial growth factor receptor 2; test: Inhibition of human recombinant VEGFR-2 kinase activity using poly(Glu-Tyr) at 4:1 ratio as substrate incubated for […] by ELISA method
HeLa = test: Cytotoxicity against human HeLa cells assessed as reduction in cell viability incubated for 24 hrs by MTT assay; format: functional, cell-based
A549 = test: Cytotoxicity against human A549 cells assessed as reduction in cell viability incubated for 72 hrs by MTT assay; format: functional, cell-based; conditions: A549, 72 h
MDA-MB-231 [23] = test: Cytotoxicity against human MDA-MB-231 cells assessed as reduction in cell viability incubated for 72 hrs by MTT assay; format: functional, cell-based; conditions: MDA-MB-231, 72 h
[24] = target: T1, Vascular endothelial growth factor receptor 2; test: Inhibition of VEGFR-2 (unknown origin)
[25] = target: T1, Vascular endothelial growth factor receptor 2; test: Inhibition of recombinant VEGFR-2 (unknown origin); remark: listed apart in the source
HepG2 [26] = test: Anticancer activity against human HepG2 cells assessed as reduction in cell viability measured after 72 hrs by MTT assay; format: functional, cell-based; conditions: HepG2, 72 h
[27] = target: T1, Vascular endothelial growth factor receptor 2; test: Inhibition of human recombinant VEGFR-2
[28] = target: T1, Vascular endothelial growth factor receptor 2; test: Inhibition of human VEGFR-2 kinase activity using poly(Glu-Tyr) at 4:1 ratio as substrate preincubated for 30 mins followed by compound addition incubated for 1 hrs by ELISA

IC50 [1]: 220 nM
SMILES: CC(=O)N1N=C(C2CCCO2)CC1c1cn(-c2ccccc2)nc1-c1cccc([N+](=O)[O-])c1 (stereo not given)

IC50 [2]: 250 nM
SMILES: Cc1ccc(NC(=O)c2ccc(NC(=O)CN3C(=O)S/C(=C/c4ccccc4)C3=O)cc2)cc1

IC50 [3]: 13.2 nM
IC50 (MDA-MB-231 [4]): 14.2 nM
SMILES: COc1cc(/C=C2\CCCn3c2nc2c(cnn2C)c3=O)cc(OC)c1OC

IC50 [5]: 386 nM
SMILES: CC(=O)c1ccc(NC(=O)CSC2=NC(=O)C(C#N)C(c3ccccc3)N2)cc1 (stereo not given)

IC50 [6]: 30 nM
SMILES: CCOc1ccc(Nc2nnc3c4c(cccc24)NC(=S)N3Cc2ccccc2)cc1

IC50 [7]: 12 nM
SMILES: NC(=O)CCn1cc(-c2ccc3ncnc(Nc4cc(O)ccc4F)c3c2)nn1

IC50 [8]: 0.19 nM
SMILES: COc1cc(-c2cc(-c3ccc4ccccc4c3)nc(NN)c2C#N)ccc1O

IC50 [5]: 199 nM
SMILES: COc1cc(C2NC(SCC(=O)Nc3ccc(C(C)=O)cc3)=NC(=O)C2C#N)cc(OC)c1OC (stereo not given)

IC50 [8]: 0.34 nM
SMILES: N#Cc1c(-c2ccc([N+](=O)[O-])cc2)cc(-c2ccc3ccccc3c2)nc1NN

IC50 [9]: 435 nM
SMILES: COc1ccc(C2=Nn3c(N/N=C4\C(=O)Nc5ccc(F)cc54)nnc3SC2)cc1

IC50 [10]: 480 nM
SMILES: Cc1ccc(C)c(NC(=O)CSc2nc3ccccc3c(=O)n2-c2ccc(S(N)(=O)=O)cc2)c1

IC50 [11]: 8.2 nM
SMILES: N=c1cc(N)nc2sc(NC(=O)c3cccs3)nn12

IC50 [12]: 4600 nM
IC50 (HepG2 [13]): 17200 nM
IC50 (PC-3): 26100 nM
IC50 (MCF7 [14]): 30800 nM
SMILES: CCn1c(SCC(=O)NNC(=O)c2ccccc2)nc2ccc([N+](=O)[O-])cc2c1=O

IC50 [15]: 1190 nM
SMILES: Cc1nc2ccccc2n(CC(=O)Nc2ccc(C(=O)NNC(=O)c3ccccc3O)cc2)c1=O

IC50 [11]: 9.4 nM
SMILES: O=C(NC1=NN2C(=O)/C(=C\c3ccco3)N=C2S1)c1cccs1

IC50 [16]: 230 nM
SMILES: O=C(N/N=C/c1ccc(Cl)cc1)c1ccc(Nc2ncnc3sc4c(c23)CCCC4)cc1

SMILES: Cc1nc2ccccc2n(CC(=O)Nc2ccc(C(=O)NC(C)(C)C)cc2)c1=O
IC50 (HepG2 [17]): 4500 nM
IC50 (MCF7 [18]): 7700 nM

IC50 [19]: 3200 nM
IC50 (HepG2 [20]): 3300 nM
IC50 (MCF7 [21]): 4400 nM
SMILES: COc1ccc(NC(=O)c2ccc(NC(=O)CSc3nnc4c5nncn5c5ccccc5n34)cc2)cc1

IC50 [22]: 570 nM
SMILES: COc1cc(/C=C/C(=O)c2ccc(N3CCNCC3)cc2)ccc1F

IC50 [2]: 280 nM
SMILES: O=C(CN1C(=O)S/C(=C/c2ccccc2)C1=O)Nc1ccc(C(=O)NCc2ccccc2)cc1

IC50 [2]: 220 nM
SMILES: CCc1ccc(NC(=O)c2ccc(NC(=O)CN3C(=O)S/C(=C/c4ccccc4)C3=O)cc2)cc1

IC50 [7]: 64 nM
SMILES: NC(=O)CCn1cc(-c2ccc3ncnc(Nc4ccc(F)c(O)c4)c3c2)nn1

IC50 [1]: 910 nM
SMILES: O=[N+]([O-])c1cccc(-c2nn(-c3ccccc3)cc2C2CC(C3CCCO3)=NN2c2ccccc2)c1 (stereo not given)

SMILES: CCOC(=O)CSc1nc2ccc(C)cc2c(=O)n1-c1ccc(F)cc1
IC50 (HeLa): 1260 nM
IC50 (A549): 570 nM
IC50 (MDA-MB-231 [23]): 1190 nM

IC50 [24]: 8.8 nM
SMILES: COC(C)Oc1cc2ncnc(Oc3ccc(NC(=O)C4(C(=O)Nc5ccc(F)cc5)CC4)cc3)c2c2c1OCCO2 (stereo not given)

IC50 [15]: 1090 nM
SMILES: Cc1nc2ccccc2n(CC(=O)Nc2ccc(C(=O)NCc3ccccc3)cc2)c1=O

IC50 [25]: 80 nM
SMILES: O=C(CCSc1nc2ccccc2o1)Nc1ccc(S(=O)(=O)NC(=O)NC2CCCCC2)cc1

IC50 [8]: 0.25 nM
SMILES: N#Cc1c(-c2ccc(Cl)cc2)cc(-c2ccc3ccccc3c2)nc1NN

IC50 [1]: 820 nM
SMILES: CC1=NN(c2ccc([N+](=O)[O-])cc2[N+](=O)[O-])C(=O)/C1=C\c1cn(-c2ccccc2)nc1-c1cccc([N+](=O)[O-])c1

IC50 [10]: 240 nM
SMILES: COc1cccc(CNC(=O)CSc2nc3ccccc3c(=O)n2-c2ccc(S(N)(=O)=O)cc2)c1OC

IC50 [16]: 360 nM
SMILES: C/C(=N\NC(=O)c1ccc(Nc2ncnc3sc4c(c23)CCCC4)cc1)c1ccccc1

IC50 [6]: 210 nM
IC50 (HepG2 [26]): 220 nM
SMILES: Fc1ccc(Nc2nnc3c4c(cccc24)NC(=S)N3Cc2ccccc2)cc1

IC50 [24]: 3.5 nM
SMILES: COc1cc2ncnc(Oc3ccc(NC(=O)C4(C(=O)Nc5ccc(F)cc5)CC4)cc3F)c2c2c1OCCO2

IC50 [27]: 7.6 nM
SMILES: N#C/C(=C\c1cccs1)c1nnc(NC(=O)c2ccco2)s1

IC50 [27]: 7.4 nM
SMILES: N#CCc1nnc(NC(=O)c2ccco2)s1

IC50 [24]: 3.6 nM
SMILES: COC(C)Oc1cc2ncnc(Oc3ccc(NC(=O)C4(C(=O)Nc5ccc(F)cc5)CC4)cc3F)c2c2c1OCCO2 (stereo not given)

IC50 [19]: 3100 nM
SMILES: O=C(CSc1nnc2c3nncn3c3ccccc3n12)Nc1ccc(C(=O)Nc2cncs2)cc1

IC50 [22]: 800 nM
SMILES: O=C(/C=C/c1cccc(F)c1)c1ccc(N2CCNCC2)cc1

IC50 [28]: 3620 nM
SMILES: Cc1ccc(S(=O)(=O)Nc2ccc(-c3cc(-c4cccc(F)c4)c(C#N)c(N)n3)cc2)cc1

IC50 [12]: 4800 nM
SMILES: O=C(CSc1nc2ccc([N+](=O)[O-])cc2c(=O)n1-c1ccccc1)NNC(=O)c1ccccc1
